# Target: T1, Axl (Homo sapiens, UniProt P30530)
# T1 sequence (P30530 26-894): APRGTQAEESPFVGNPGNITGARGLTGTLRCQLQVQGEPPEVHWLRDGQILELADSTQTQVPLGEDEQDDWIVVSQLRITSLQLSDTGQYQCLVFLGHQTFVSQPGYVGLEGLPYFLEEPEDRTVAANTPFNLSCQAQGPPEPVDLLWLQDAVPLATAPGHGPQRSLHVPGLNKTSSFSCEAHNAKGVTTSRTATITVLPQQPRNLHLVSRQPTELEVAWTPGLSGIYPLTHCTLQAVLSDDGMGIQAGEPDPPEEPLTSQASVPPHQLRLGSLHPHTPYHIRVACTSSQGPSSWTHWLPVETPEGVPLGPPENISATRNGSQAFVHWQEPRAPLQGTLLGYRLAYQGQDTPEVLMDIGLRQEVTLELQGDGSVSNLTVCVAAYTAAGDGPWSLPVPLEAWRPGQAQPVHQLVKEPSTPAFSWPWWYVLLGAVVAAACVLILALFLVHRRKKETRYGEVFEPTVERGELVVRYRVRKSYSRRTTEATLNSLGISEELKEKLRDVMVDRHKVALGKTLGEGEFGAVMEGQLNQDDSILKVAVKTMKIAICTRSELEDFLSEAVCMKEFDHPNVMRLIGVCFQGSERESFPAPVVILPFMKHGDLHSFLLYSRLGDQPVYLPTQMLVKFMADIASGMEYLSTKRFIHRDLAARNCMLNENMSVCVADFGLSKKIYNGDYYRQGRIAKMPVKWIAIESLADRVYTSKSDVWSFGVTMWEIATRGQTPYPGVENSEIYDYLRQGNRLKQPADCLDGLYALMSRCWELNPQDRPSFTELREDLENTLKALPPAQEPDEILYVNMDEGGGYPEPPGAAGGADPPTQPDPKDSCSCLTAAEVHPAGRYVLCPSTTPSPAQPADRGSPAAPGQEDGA
# Assay: Cellular Axl inhibition ELISA (p-Axl, Gas6-induced) using H1299 cells
# Format: cell-based
# Set-up: especially H1299 cell endogenously expresses Axl; endogenous in cells; host or cells: H1299
# Details: read-out: Cellular Axl activity by H1299 Elisa (IC50)
# Description: Axl is expressed in several of malignant cancer cells; especially H1299 cell endogenously expresses Axl; and an increased phosphorylation of Axl (p-Axl) can be observed, when induced by the Axl ligand, Ga6.
# The H1299 cells should be 40-80% confluent in the cell culture flask. Then cells are washed with DPBS and trypsinized. After centrifugation, the cell pellet is re-suspended with pre-warmed culture medium (RPMI1640, 10% FBS) and cells are separated by pipetting 6 times up and down with a 10 ml serological pipette. The cell suspension was diluted to a final concentration of 1.25×10^5 cells/ml. Then 80 μl/well cell suspension is added to the plate. Cell-plates are incubated at 37° C./5% CO2 overnight. Compounds were dissolved by DMSO to 10 mM, and kept in nitrogen cabinet. Prepare the compounds stock plate, the reference compounds concentration starts at 0.50 mM (5 μl+95 μl DMSO), and the tested compounds start at 1.5 mM (6 μl+34 μl DMSO); Then make a 3-fold dilution series (10 doses) compounds. Then dilute compounds by the medium in the mid plate (2 μl compounds+198 μl medium). Transfer 20 μl diluted compounds from mid plate to the cell coated plate. Cell-plates are incubated at 37° C./5% CO2 for 24 h. Add 25 μl of Human Gas6 (1000 ng/ml) to 96-well plate; the final concentration of Human Gas6 is 200 ng/ml. Incubate the plates at 37° C./5% CO2 for 1 h. Remove medium and wash cells once with 300 ul/well ice-cold 1×PBS. Then remove PBS and add 100 μl/well ice-cold 1× Cell Lysis Buffer to 96-well plate. The plate is shaken for 40 min at 4° C. Then plates can be stored at −20° C. After the micro-wells strips have reached room temperature, break off the required number of micro-wells. Place the micro-wells in the strip holder. Unused micro-wells must be resealed and stored at 4° C. immediately. Add 60 μl of cell lysate to the appropriate well. Seal with tape and press firmly onto top of micro-wells. Incubate the plate at 37° C. for 2 h. Gently remove the tape and wash wells 5 times with 1× Wash Buffer, 300 μl each time for each well. Add 100 μl of reconstituted Detection Antibody (green color) to each well. Seal with tape and incubate the plate at 37° C. for 1 h. Repeat wash procedure. Add 100 μl of reconstituted HRP Linked secondary antibody to each well. Seal with tape and incubate the plate at 37° C. for 30 min. Repeat wash procedure. Add 100 μl of TMB Substrate to each well. Seal with tape and incubate the plate at 37° C. for 15 min. Add 100 μl of STOP Solution to each well. Shake gently for a few seconds. Read absorbance at 450 nm within 30 min after adding STOP Solution. Calculations and Formulas: The following calculations and formulas are used for data analysis using XL Fit software: The curve fitting was made using the Sigmoidal Dose-Response Model (Fit model, 205).
row,Structure (SMILES),IC50
1,CCCn1cc(OCC(F)(F)F)c(C(=O)Nc2ccc(Oc3ccnc4cc(OC)c(OC)cc34)nn2)n1 [Compound 32],< 500 nM
2,COc1cc2nccc(Oc3ccc(NC(=O)c4nn(C5CCCC5)cc4OCC(F)(F)F)nc3)c2cc1OC [Compound 40],< 500 nM
3,COc1cc2nccc(Oc3ccc(NC(=O)c4nn(C5CCCC5)cc4OCC(F)(F)F)cc3C)c2cc1OC [Compound 57],< 500 nM
4,COc1cc2nccc(Oc3ccc(NC(=O)c4nn(CC5CCCCC5)cc4OCC(F)(F)F)nc3)c2cc1OC [Compound 43],< 500 nM
5,COc1cc2nccc(Oc3ccc(NC(=O)c4nn(C(C)(C)C)cc4OCC(F)(F)F)nc3)c2cc1OC [Compound 22],< 500 nM
6,COc1cc2nccc(Oc3ccc(NC(=O)c4nn(C5CC5)c(C(C)=O)c4OCC(F)(F)F)nc3)c2cc1OC [Compound 3],< 500 nM
7,CCCn1cc(OCCF)c(C(=O)Nc2ccc(Oc3ccnc4cc(OC)c(OC)cc34)cn2)n1 [Compound 14],< 500 nM
8,COc1cc2nccc(Oc3ccc(NC(=O)c4nn(CC(C)(F)F)cc4OCC(F)(F)F)nc3)c2cc1OC [Compound 64],< 500 nM
9,COc1cc2nccc(Oc3ccc(NC(=O)c4nn(CC5CCC5)cc4OCC(F)(F)F)nc3)c2cc1OC [Compound 42],< 500 nM
10,COc1cc2nccc(Oc3ccc(NC(=O)c4nn(CCO)cc4OCC(F)(F)F)c(F)c3)c2cc1OC [Compound 46],< 500 nM
11,COc1cc2nccc(Oc3ccc(NC(=O)c4nn(C[C@H](C)O)cc4OCC(F)(F)F)nc3)c2cc1OC [Compound 30],< 500 nM
12,COc1cc2nccc(Oc3ccc(NC(=O)c4nn(C5CCCCC5)cc4OCC(F)(F)F)nc3)c2cc1OC [Compound 69],< 500 nM
13,COc1cc2nccc(Oc3ccc(NC(=O)c4nn(CCO)cc4OCC(F)(F)F)cc3F)c2cc1OC [Compound 51],< 500 nM
14,CCCn1cc(OCC(F)(F)F)c(C(=O)Nc2ccc(Oc3ccnc4cc(OC)c(OC)cc34)cc2F)n1 [Compound 28],< 500 nM
15,COc1cc2nccc(Oc3ccc(NC(=O)c4nn(C)cc4OCC(F)(F)F)c(F)c3)c2cc1OC [Compound 45],500 to 1000 nM
16,COc1cc2nccc(Oc3ccc(NC(=O)c4nn(CC(C)C)cc4OCC(F)(F)F)c(F)c3)c2cc1OC [Compound 48],< 500 nM
17,CCCn1cc(NCC(F)(F)F)c(C(=O)Nc2ccc(Oc3ccnc4cc(OC)c(OC)cc34)cn2)n1 [Compound 23],< 500 nM
18,CCCn1cc(OCC2CCC2)c(C(=O)Nc2ccc(Oc3ccnc4cc(OC)c(OC(F)(F)F)cc34)cn2)n1 [Compound 167],< 500 nM
19,COc1cc2nccc(Oc3ccc(NC(=O)c4nn(CC(C)N)cc4OCC(F)(F)F)nc3)c2cc1OC (stereo not drawn) [Compound 63],< 500 nM
20,CCCn1cc(OCCC(O)CO)c(C(=O)Nc2ccc(Oc3ccnc4cc(OC)c(OC)cc34)cn2)n1 (stereo not drawn) [Compound 15],≥ 1000 nM
21,COc1cc2nccc(Oc3ccc(NC(=O)c4nn(C5CCCC5)cc4OCC(F)(F)F)cc3)c2cc1OC [Compound 60],< 500 nM
22,COc1cc2nccc(Oc3ccc(NC(=O)c4nn(CC5CCN(C)C5)cc4OCC(F)(F)F)nc3)c2cc1OC (stereo not drawn) [Compound 169],≥ 1000 nM
23,COc1cc2nccc(Oc3ccc(NC(=O)c4nn(CC(C)O)cc4OCC4CN(C)C4)nc3)c2cc1OC (stereo not drawn) [Compound 174],≥ 1000 nM
24,CCCn1cc(N(C)CC2CCOCC2)c(C(=O)Nc2ccc(Oc3ccnc4cc(OC)c(OC)cc34)cn2)n1 [Compound 34],≥ 1000 nM

row,Structure (SMILES),IC50
1,CCn1nc(C(=O)Nc2ccc(Oc3ccnc4cc(OC)c(OC)cc34)cn2)c(OCC(F)(F)F)c1C [Compound 1],< 500 nM
2,COc1cc2nccc(Oc3ccc(NC(=O)c4cc(C5CC5)cnc4OCC(F)(F)F)nc3)c2cc1OC [Compound 178],< 500 nM
3,COc1cc2nccc(Oc3ccc(NC(=O)c4nn(C5CCOC5)cc4OCC(F)(F)F)cc3)c2cc1OC (stereo not drawn) [Compound 62],< 500 nM
4,COc1cc2nccc(Oc3ccc(NC(=O)c4nn(CC(C)C)cc4OCC(F)(F)F)cc3C)c2cc1OC [Compound 58],< 500 nM
5,COc1cc2nccc(Oc3ccc(NC(=O)c4nn(C5CCNC5)cc4OCC(F)(F)F)c(F)c3)c2cc1OC (stereo not drawn) [Compound 74],< 500 nM
6,COc1cc2nccc(Oc3ccc(NC(=O)c4nn(CC(C)O)cc4OCC(F)(F)F)c(F)c3)c2cc1OC (stereo not drawn) [Compound 76],< 500 nM
7,CCCn1cc(OCCN(C)C)c(C(=O)Nc2ccc(Oc3ccnc4cc(OC)c(OC)cc34)cn2)n1 [Compound 177],< 500 nM
8,COc1cc2nccc(Oc3ccc(NC(=O)c4nn(CCO)cc4OCC(F)(F)F)cc3)c2cc1OC [Compound 59],< 500 nM
9,COc1cc2nccc(Oc3ccc(NC(=O)c4nn(C[C@@H](C)O)cc4OCC(F)(F)F)nc3)c2cc1OC [Compound 29],< 500 nM
10,COc1cc2nccc(Oc3ccc(NC(=O)c4nn(CCC#N)cc4OCC(F)(F)F)nc3)c2cc1OC [Compound 39],< 500 nM
11,COc1cc2nccc(Oc3ccc(NC(=O)c4nn(CC(C)O)cc4OCC(F)(F)F)nc3)c2cc1OC (stereo not drawn) [Compound 17],< 500 nM
12,COc1cc2nccc(Oc3ccc(NC(=O)c4nn(CC5CNC5)cc4OCC(F)(F)F)nc3)c2cc1OC [Compound 73],≥ 1000 nM
13,COc1cc2nccc(Oc3ccc(NC(=O)c4nn(CC(C)=O)cc4OCC(F)(F)F)nc3)c2cc1OC [Compound 19],< 500 nM
14,COCCn1cc(OCC(F)(F)F)c(C(=O)Nc2ccc(Oc3ccnc4cc(OC)c(OC)cc34)cc2F)n1 [Compound 49],< 500 nM
15,COc1cc2nccc(Oc3ccc(NC(=O)c4nn(CCNC5CC5)cc4OCC(F)(F)F)nc3)c2cc1OC [Compound 168],< 500 nM
16,COc1cc2nccc(Oc3ccc(NC(=O)c4nn(C5CCNC5)cc4OCC(F)(F)F)nc3)c2cc1OC (stereo not drawn) [Compound 70],< 500 nM
17,CCCn1cc(OCCC(F)(F)F)c(C(=O)Nc2ccc(Oc3ccnc4cc(OC)c(OC)cc34)cn2)n1 [Compound 31],< 500 nM
18,COc1cc2nccc(Oc3ccc(NC(=O)c4nn(C)cc4OCC(F)(F)F)nc3)c2cc1OC [Compound 33],< 500 nM
19,CCCn1cc(OCC(F)(F)F)c(C(=O)Nc2ccc(Oc3ccnc4cc(OC)c(OC)cc34)c(C)c2)n1 [Compound 26],< 500 nM
20,COc1cc2nccc(Oc3ccc(NC(=O)c4nn(CCC(F)(F)F)cc4OCC4CCC4)nc3)c2cc1OC [Compound 166],< 500 nM
21,COc1cc2nccc(Oc3ccc(NC(=O)c4nn(C5CC5)cc4OCC4CNC4)nn3)c2cc1OC [Compound 172],≥ 1000 nM
22,COc1cc2nccc(Oc3ccc(NC(=O)c4nn(C)cc4OCC(F)(F)F)cc3C)c2cc1OC [Compound 37],≥ 1000 nM
23,CCCn1cc(OCC(F)(F)F)c(C(=O)Nc2ccc(Oc3ccnc4cc(OC)c(OC)cc34)cc2C)n1 [Compound 27],< 500 nM
24,COc1cc2nccc(Oc3ccc(NC(=O)c4nn(C)cc4OCC(F)(F)F)cc3F)c2cc1OC [Compound 50],< 500 nM
